Some test systems named below: A498; A549; BT-549; DU-145; HOP-92; HT-29; K562; KM12; MDA-MB-231; MOLT-4; OVCAR-4; OVCAR-5; PC-3; RXF 393; SF-268; SK-MEL-28; SK-MEL-2; SK-OV-3; T47D; UO-31.
What all share (test): NCI-60 cell line screen, 48 h

The structures appear in SMILES notation.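 Cultured in 96-well plates, cells were exposed to test compound for 48 hours across five concentrations. Abbreviation: GI50, concentration required for 50% inhibition of growth.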 Active and inactive are the calls of the source. Rule as the data show it: active = GI50 up to about 1.1 µM and inactive = higher.

Experimental findings from ChEMBL document CHEMBL1201862, “PubChem BioAssay data set” (2004) are described below.

`COc1cc2c(cc1OC)[C@H]1C(=O)c3cc4c(cc3[C@H]1N(C)C2=O)OCO4`: the GI50 in the assay with A498 was 8.43 µM (inactive); with A549 it was 21.8 µM (inactive); in the assay with BT-549, > 49.4 µM (inactive); in the assay on DU-145, 8.43 µM (inactive); with HOP-92, 22.2 µM (inactive); in the assay on HT-29, 5.27 µM (inactive). Also, the GI50 in the assay on K562 was 0.869 µM (active); in the assay on KM12 it was 36.6 µM (inactive); with MDA-MB-231 it was 28 µM (inactive); with MOLT-4, 0.3 µM (active); in the assay with OVCAR-4 it was > 100 µM (inactive); with OVCAR-5, > 100 µM (inactive). Also, the GI50 with PC-3 is 9.04 µM (inactive); in the assay on RXF 393, 21.8 µM (inactive); with SF-268 it was 4.17 µM (inactive); in the assay on SK-MEL-28, > 100 µM (inactive); in the assay on SK-MEL-2, > 100 µM (inactive); in the assay with SK-OV-3, 6.7 µM (inactive). For the same molecule, the GI50 in the assay with T47D was > 28.2 µM (inactive); in the assay with UO-31 it was 1.42 µM (inactive).

With `N=C(N)NS(=O)(=O)c1ccc(N/N=C2/CCOC2=O)cc1`, the GI50 with A498 is > 100 µM (inactive); in the assay with A549 it was > 100 µM (inactive); with BT-549, > 100 µM (inactive); in the assay on DU-145 it was > 100 µM (inactive); in the assay on HOP-92, 63.2 µM (inactive); in the assay on HT-29, > 100 µM (inactive). Further, the GI50 in the assay on K562 was 45.3 µM (inactive); in the assay on KM12, > 100 µM (inactive); with MDA-MB-231, > 100 µM (inactive); with MOLT-4, 2.95 µM (inactive); in the assay with OVCAR-4, > 100 µM (inactive); in the assay on OVCAR-5, > 100 µM (inactive). In addition, the GI50 with PC-3 is 80.4 µM (inactive); with RXF 393, > 100 µM (inactive); with SF-268 it was 45.1 µM (inactive); in the assay with SK-MEL-28, > 100 µM (inactive); with SK-MEL-2 it was > 100 µM (inactive); in the assay with SK-OV-3 it was 40.6 µM (inactive). Besides, the results for the GI50 in the assay on T47D and in the assay on UO-31 were 49.1 µM (inactive) and > 100 µM (inactive), respectively.
